Test results reported in patent publication US9527828B2, “Method for expanding hematopoietic stem cells using heterocyclic compound” (Nissan Chemical Industries, Ltd., priority 2007, dated 2016).

What was measured:
CD34^+CD38^− cells [1] = experiment: Expansion of CD34+CD38− cells from human cord blood-derived CD34+ cells (Example 2); format: cell-based; settings: Homo sapiens, 168 h, 1 μg/mL compound, 50 ng/mL SCF, StemSpan SFEM, 7 days; based on number of CD34+CD38− cells in the absence of compound; read-out: Expansion efficiency
Experimental: The human cord blood-derived CD34^+ cells collected or purchased in Example 1 were plated on a 24-well plate (TPP) (10000 cells/1/mL/well). As the culture medium, StemSpan SFEM (Stemcell Technologies) containing 50 ng/mL SCF (Peprotech) was used, and Compounds No. 1 to 133 dissolved in dimethyl sulfoxide were added in an amount of 0.1% (v/v) to a final concentration of 1 μg/mL.
After the cells were incubated in liquid culture at 37° C. for 7 days in a CO2 incubator (5% CO2), the number of viable cells was counted by trypan blue assay. The number of CD34^+CD38^− cells was calculated as follows. After the incubation, the cells in the liquid culture was stained with a CD34 antibody (APC, Becton, Dickinson and Company) and a CD38 antibody (PE, Becton, Dickinson and Company), then washed with PBS(−) containing 2% (v/v) FBS and stained with propidium iodide (Sigma-Aldrich Japan) added to a final concentration of 5 μg/mL. The stained cells were analyzed with a flow cytometer JSAN (Bay Bioscience) to determined the proportion of CD34^+CD38^− cells, which was multiplied by the number of viable cells to calculate the number of CD34^+CD38^− cells.
The expansion efficiencies in the presence of 1 μg/mL of compounds based on the number of CD34^+CD38^− cells in the absence of them are shown in Tables 2 and 3 on a scale of A for expansion efficiencies of 10 or greater, B for expansion efficiencies of at least 5 and less than 10, and C for expansion efficiencies of at least 3 and less than 5.

[2] = system: HPP-CFU colony forming cells; experiment: Blood cell colony forming assay, HPP-CFC colonies (Example 5); format: cell-based, human; settings: liquid cultures of Example 2 (1 μg/mL compound), 500 cells/dish, MethoCult GF H4435, 12 days, averaged
Experimental: The effects of Compounds No. 1, No. 2, and No. 4 of the present invention on hematopoietic progenitor cells were measured by blood cell colony forming assay. The liquid cell cultures obtained in Example 2 were poured into 3.5-cm Petri dishes with MethoCult GF H4435 culture medium (Stemcell Technologies) at 500 cells/dish and incubated in a CO2 incubator (5% CO2, 37° C.) for 12 days. The number of HPP-CFC colonies in each plate was counted under a microscope routinely. The assay was carried out at least in duplicate, and the numbers of HPP-CFC colonies were averaged.

CD34^+CD38^− cells [3] = experiment: Expansion of CD34+CD38− cells using cord blood-derived CD34+CD38− cells (Example 6); format: cell-based, human; settings: 1 μg/mL compound, CD34+CD38− starting cells, 50 ng/mL SCF, 7 days; based on number of CD34+CD38− cells in the presence of 10 ng/mL TPO
Experimental: The human cord blood-derived CD34^+CD38^− cells collected in Example 1 were plated on a 24-well plate (TPP) (from 3000 to 10000 cells/1 mL/well). As the culture medium, StemSpan SFEM (Stemcell Technologies) containing 50 ng/mL SCF (Peprotech) was used, and TPO (Peprotech) or Compound No. 1, No. 2, No. 4 or No. 6 in dimethyl sulfoxide in an amount of 0.1% (v/v) was added to a final concentration of […] or 1 μg/mL, respectively. After the cells were incubated in liquid culture at 37° C. for 7 days in a CO2 incubator (5% CO2), the number of CD34^+CD38^− cells was calculated in the same manner as in Example 2.
The expansion efficiencies in the presence of 1 μg/mL of the compounds based on the number of CD34^+CD38^− cells in the presence of 10 ng/mL TPO are shown in Table 5.

SRC = experiment: Transplantation of cell culture into NOD/SCID mice, human CD45+ cells in bone marrow (Example 7); format: in vivo; settings: cells cultured with 1 μg/mL compound vs 10 ng/mL TPO; three weeks after transplantation (FIG. 3)
Experimental: Cultured cells obtained in the same manner as in Example 2 in the presence of TPO (Peprotech) at a final concentration of 10 ng/mL or in the presence of Compound No. 1 or No. 4 at a final concentration of 1 μg/mL was transplanted into at least three 7- to 8-week-old NOD/SCID mice by tail vein injection at 4 to 5×10^4 cells/mouse in terms of the initial number of CD34^+ cells after a sublethal dose of irradiation (2.75 to 3 Gy). Three weeks after the transplantation, the mice were killed, and the bone marrow cells were collected from both thighbones. Subsequently, the bone marrow cells were stained with a human CD45 antibody (APC, Becton, Dickinson and Company), then washed with PBS(−) containing 2% (v/v) FBS and stained with propidium iodide (Sigma-Aldrich Japan) added to a final concentration of 5 μg/mL. The stained cells were analyzed with a flow cytometer JSAN (Bay Bioscience) to determined the proportion of human CD45^+ cells in the bone marrow cells.
The proportions of human CD45^+ cells from the cell cultures incubated in the presence of 1 μg/mL of Compound No. 1 or No. 4 based on the proportion of human CD45^+ cells from the cell culture incubated in the presence of 10 ng/mL TPO are shown in FIG. 3.

CD34^+NGFR^+ cells = experiment: Transfection of cord blood CD34+ cells with NGFR gene, CD34+NGFR+ cell expansion (Example 10); set-up: species or system human; settings: TPO 20 ng/mL or compound 0.3 μg/mL, 20 ng/mL SCF and Flt-3; based on number of CD34+NGFR+ cells in the absence of them
Experimental: The human cord blood-derived CD34^+ cells collected or purchased in Example 1 were plated on 3 cm-Petri dishes (TPP) (100000 cells/3 ml/dish). As the culture medium, StemSpan SFEM (Stemcell Technologies) containing 20 ng/ml SCF (Peprotech) and 20 ng/mL Flt-3 (Wako Pure Chemical Industries) was used, and TPO (Peprotech) or Compound No. 1 or No. 4 in dimethyl sulfoxide in an amount of 0.1% (v/v) was added to a final concentration of 20 ng/mL or 0.3 μg/mL, respectively. A negative control culture was incubated in the absence of TPO and the compounds.
After the cells were incubated in liquid culture at 37° C. for 24 hours in a CO2 incubator (5% CO2), 2 ml of the culture medium was sucked out, and 2 ml of the solution of the retrovirus for expression of NGFR prepared in Example 7 (containing 5 μg/mL protamine sulfate (Sigma-Aldrich Japan), 20 ng/ml SCF (Peprotech) and 20 ng/mL Flt-3 (Wako Pure Chemical Industries)) was added. TPO (Peprotech) or Compound No. 1 or No. 4 in dimethyl sulfoxide in an amount of 0.1% (v/v) was further added to a final concentration of […] or 0.3 μg/mL, respectively, and centrifugation at 2000 g was carried out at 32° C. for 30 minutes. Then, the cells were incubated in liquid culture under the same conditions as mentioned above for 24 hours, 2 ml of the culture medium was sucked out, 2 ml of the same solution of the retrovirus for expression of NGFR was added together with TPO or either compound, and centrifugation at 2000 g was carried out at 32° C. for 30 minutes. […] The cells were incubated in liquid culture under the same conditions as mentioned above for 24 hours, and the number of viable cells was counted by trypan blue assay (GIBCO).
The number of CD34^+ cells carrying NGFR introduced via the retrovirus vector (the number of CD34^+NGFR^+ cells) was calculated as follows. […] The stained cells were analyzed with JSAN (Bay Bioscience) to determined the proportion of CD34^+NGFR^+ cells, which was multiplied by the number of viable cells to calculate the number of CD34^+NGFR^+ cells. […]

Row | Compound | fold induction at 1 µg/mL (CD34^+CD38^− cells [1]) | further results
1 | C/C(=N\NC(=O)c1ccc(C(=O)NCc2cc(C)n(C)n2)s1)c1csc(-c2ccc(Cl)c(Cl)c2)c1O [compound 2] | ≥ 10 | Number of HPP-CFC colonies [2]: 35; Expansion efficiency (CD34^+CD38^− cells [3]): 2.7
2 | C/C(=N\NC(=O)c1ccc(C(=O)Nc2cscn2)s1)c1csc(-c2ccc(Br)cc2)c1O [compound 6] | ≥ 10 | Expansion efficiency (CD34^+CD38^− cells [3]): 1.4
3 | C/C(=N\NC(=O)c1ccc(C(=O)N(C)Cc2ccccc2)s1)c1csc(-c2cccc(Cl)c2)c1O [compound 79] | 3 to 5 | –
4 | CCN(C)C(=O)c1ccc(C(=O)N/N=C(\C)c2csc(-c3ccc(Cl)c(Cl)c3)c2O)s1 [compound 81] | 3 to 5 | –
5 | CCN(CC)C(=O)c1ccc(C(=O)N/N=C(\C)c2csc(-c3ccc(Cl)cc3)c2O)s1 [compound 71] | 5 to 10 | –
6 | C/C(=N\NC(=O)c1ccc(C(=O)NCc2ccc(C(N)=O)cc2)s1)c1csc(-c2ccc(Cl)c(Cl)c2)c1O [Compound No. 4] | ≥ 10 | Number of HPP-CFC colonies [2]: 45; Expansion efficiency (CD34^+CD38^− cells [3]): 1.9; SRC expanding effect (proportion of human CD45+ cells in bone marrow) (SRC): excellent SRC expanding effect; Expansion efficiency (CD34^+NGFR^+ cells): 12.5
7 | C/C(=N\NC(=O)c1ccc(C(=O)NCc2cn(C)cn2)s1)c1csc(-c2ccc(C(F)(F)F)cc2)c1O [compound 55] | 5 to 10 | –
8 | C/C(=N\NC(=O)c1ccc(C(=O)NCc2ccccc2C(N)=O)s1)c1csc(-c2ccc(Cl)cc2)c1O [compound 103] | ≥ 10 | –
9 | C/C(=N\NC(=O)c1ccc(C(=O)NCc2ccccc2)s1)c1csc(-c2ccc(Cl)c(Cl)c2)c1O [compound 16] | ≥ 10 | –
10 | CNC(=O)c1ccc(CNC(=O)c2ccc(C(=O)N/N=C(\C)c3csc(-c4ccc(Cl)c(Cl)c4)c3O)s2)cc1 [compound 106] | ≥ 10 | –
11 | CNC(=O)c1ccc(CNC(=O)c2ccc(C(=O)N/N=C(\C)c3csc(-c4ccc(Br)cc4)c3O)s2)cc1 [compound 108] | ≥ 10 | –
12 | thrombopoietin [TPO] | – | Expansion efficiency (CD34^+NGFR^+ cells): 7.7
13 | C/C(=N\NC(=O)c1ccc(C(=O)NCc2cc(Cl)no2)s1)c1csc(-c2ccc(Cl)c(Cl)c2)c1O [compound 47] | 5 to 10 | –
14 | C/C(=N\NC(=O)c1ccc(C(=O)NC(C)c2ccc(C(N)=O)cc2)s1)c1csc(-c2ccc(Br)cc2)c1O (stereo not drawn) [compound 115] | ≥ 10 | –
15 | C/C(=N\NC(=O)c1ccc(C(=O)NCc2cn(C)cn2)s1)c1csc(-c2ccc(Cl)c(Cl)c2)c1O [Compound No. 1] | ≥ 10 | Number of HPP-CFC colonies [2]: 41; Expansion efficiency (CD34^+CD38^− cells [3]): 1.9; SRC expanding effect (proportion of human CD45+ cells in bone marrow) (SRC): excellent SRC expanding effect; Expansion efficiency (CD34^+NGFR^+ cells): 9.8
16 | CCCCCNC(=O)c1ccc(C(=O)N/N=C(\C)c2csc(-c3ccc(Cl)c(Cl)c3)c2O)s1 [compound 69] | 3 to 5 | –
